Laboratory results published in US5747456A, “Continuous low-dose administration of parathyroid hormone or its agonist” (Beth Israel Deaconess Medical Center, priority 1996, dated 1998).

Columns and labels:
bone growth = test: Continuous infusion of hPTH1-34 in post-menopausal women with osteoporosis (Example 5); assay type: in vivo, human; settings: continuous infusion 25 to 400 units/24 hrs by infusion pump, twelve months
Experimental: The anabolic efficacy of the PTH/PTHrP agonists are tested in humans (Review in Dempster D. W., et al., Endocrine Rev., 1993, 14, 690-709). To determine if continuous administration of hPTH1-34 or its agonist is effective in promoting bone growth in humans, 30 post-menopausal women with established osteoporosis based on bone-density measurements are selected. A double-blind, placebo-controlled, randomized experiment is conducted where two groups of 15 women each are either placed on placebo treatment or continuous infusion of a defined dose of hPTH1-34 (25 units to 400 units/24 hrs) using an infusion pump.
The patients prior to the study are subject to the following: complete health and physical examination, evaluation of the nutritional status (particularly of calcium intake and serum calcium), full analysis of biomarkers for bone-turnover (Riis, B. J., Amer. J. Med. 1993, 95 [Suppl 5A], 17s-21s; Delmas, P. D., Amer. J. Med., […], 91 [Suppl 5B], 59s-63s), radiology, bone mass measurements of vertebral and axial sites (Gerant, H. K., et al., Amer. J. Med., 1991, 91 [Suppl 5B], 49s-53s; Wasnich, R. D., Amer J Med, 1991, 91 [Suppl 5B], 54s-58s) and bone biopsy, to establish the baseline parameters for each individual. […]

osteoblast activity = settings: intravenous infusion 0.55 U/kg/hr continuously for 24 hours, cited from earlier work

hPTH1-34: synthetic amino-terminal fragment of PTH1-84 (human parathyroid hormone)
bone mass measurements and bone biopsy (bone growth): clear indication of bone growth
blood levels of ionized calcium (osteoblast activity; humans): increase
serum levels of collagen type I (osteoblast activity; within 16 hours of infusion, six osteoporotic and two normal subjects): decreased
